From patent US10696615B2, “Prenylated hydroxystilbenes” (The University of Sydney, priority 2011, dated 2020)

Tests used:
HL-60 (TB) = experiment: NCI in vitro cancer screen, Leukemia; assay type: cell-based, human; conditions: HL-60 (TB)
MOLT-4 = experiment: NCI in vitro cancer screen, Leukemia; assay type: cell-based, human; conditions: MOLT-4
RPMI-8226 = experiment: NCI in vitro cancer screen, Leukemia; assay type: cell-based, human; conditions: RPMI-8226
A549/ATCC = experiment: NCI in vitro cancer screen, Non-Small Cell Lung Cancer; assay type: cell-based, human
EKVX = experiment: as above; assay type: cell-based, human
HOP-92 = experiment: as above; assay type: cell-based, human; conditions: HOP-92
NCI-H322M = experiment: as above; assay type: cell-based, human
NCI-H522 = experiment: as above; assay type: cell-based, human; conditions: NCI-H522
COLO 205 = experiment: NCI in vitro cancer screen, Colon Cancer; assay type: cell-based, human; conditions: COLO 205
HCT-15 = experiment: NCI in vitro cancer screen, Colon Cancer; assay type: cell-based, human; conditions: HCT-15
HT29 = experiment: NCI in vitro cancer screen, Colon Cancer; assay type: cell-based, human; conditions: HT29
KM12 = experiment: NCI in vitro cancer screen, Colon Cancer; assay type: cell-based, human; conditions: KM12
SF-268 = experiment: NCI in vitro cancer screen, CNS Cancer; assay type: cell-based, human; conditions: SF-268
SF-539 = experiment: NCI in vitro cancer screen, CNS Cancer; assay type: cell-based; conditions: SF-539
SNB-75 = experiment: NCI in vitro cancer screen, CNS Cancer; assay type: cell-based, human; conditions: SNB-75
LOX IMVI = experiment: NCI in vitro cancer screen, Melanoma; assay type: cell-based, human
M14 = experiment: NCI in vitro cancer screen, Melanoma; assay type: cell-based, human; conditions: M14
SK-MEL-2 = experiment: NCI in vitro cancer screen, Melanoma; assay type: cell-based, human; conditions: SK-MEL-2
SK-MEL-28 = experiment: NCI in vitro cancer screen, Melanoma; assay type: cell-based, human; conditions: SK-MEL-28
UACC-257 = experiment: NCI in vitro cancer screen, Melanoma; assay type: cell-based, human; conditions: UACC-257
OVCAR-4 = experiment: NCI in vitro cancer screen, Ovarian Cancer; assay type: cell-based, human; conditions: OVCAR-4
OVCAR-5 = experiment: NCI in vitro cancer screen, Ovarian Cancer; assay type: cell-based, human; conditions: OVCAR-5
OVCAR-8 = experiment: NCI in vitro cancer screen, Ovarian Cancer; assay type: cell-based, human; conditions: OVCAR-8
A498 = experiment: NCI in vitro cancer screen, Renal Cancer; assay type: cell-based, human; conditions: A498
RXF-393 = experiment: NCI in vitro cancer screen, Renal Cancer; assay type: cell-based, human; conditions: RXF-393
SN12C = experiment: NCI in vitro cancer screen, Renal Cancer; assay type: cell-based, human
UO-31 = experiment: NCI in vitro cancer screen, Renal Cancer; assay type: cell-based, human; conditions: UO-31
PC-3 = experiment: NCI in vitro cancer screen, Prostate Cancer; assay type: cell-based, human; conditions: PC-3
MCF7 = experiment: NCI in vitro cancer screen, Breast Cancer; assay type: cell-based, human; conditions: MCF7
[1] = test system: MDA-MB-231 (MDA-MB-231/ATCC); experiment: NCI in vitro cancer screen, Breast Cancer; assay type: cell-based, human; conditions: MDA-MB-231
T-47D = experiment: NCI in vitro cancer screen, Breast Cancer; assay type: cell-based, human
[2] = Homo sapiens, read-out: LC50 (the source's name)

`CC(C)=CCc1c(O)cc(/C=C/c2ccc(O)cc2)c(CC=C(C)C)c1O` [USYDS6, (E)-2,4-di(3-methyl-2-buten-1-yl)-3,4′,5-trihydroxystilbene] was tested, and the TGI (HL-60 (TB)) was 4.83 µM, the GI50 (HL-60 (TB); Homo sapiens) was 2.07 µM and the CC50 (HL-60 (TB); [2]) was 15.4 µM. The GI50 (MOLT-4; Homo sapiens) was 1.59 µM, the CC50 (MOLT-4; [2]) was 16.8 µM and the TGI (MOLT-4) was 4.27 µM. For the same compound, the GI50 (RPMI-8226; Homo sapiens) was 2.34 µM, the CC50 (RPMI-8226; [2]) was 62 µM and the TGI (RPMI-8226) was 5.61 µM. It also gave a TGI (A549/ATCC) of 8.42 µM, a GI50 (A549/ATCC; Homo sapiens) of 2.69 µM and a CC50 (A549/ATCC; [2]) of 33.7 µM. The TGI (EKVX) was 21.4 µM, the GI50 (EKVX; Homo sapiens) was 7.19 µM and the CC50 (EKVX; [2]) was 54.4 µM. For the same compound, the TGI (HOP-92) was 4.67 µM, the GI50 (HOP-92; Homo sapiens) was 1.86 µM and the CC50 (HOP-92; [2]) was 14.5 µM. The TGI (NCI-H322M) was 25.5 µM, the GI50 (NCI-H322M; Homo sapiens) was 1.16 µM and the GI50 (NCI-H522; Homo sapiens) was 2.18 µM. The CC50 (NCI-H522; [2]) was 17.8 µM, the TGI (NCI-H522) was 5.15 µM and the TGI (COLO 205) was 30.2 µM. It also gave a GI50 (COLO 205; Homo sapiens) of 16 µM, a CC50 (COLO 205; [2]) of 57.2 µM and a TGI (HCT-15) of 6.26 µM. It also gave a GI50 (HCT-15; Homo sapiens) of 2.13 µM, a CC50 (HCT-15; [2]) of 48.2 µM and a TGI (HT29) of 17.6 µM. It also gave a GI50 (HT29; Homo sapiens, HT-29) of 5.44 µM, a CC50 (HT29; Homo sapiens, HT-29, read-out: LC50 (the source's name)) of 48.3 µM and a GI50 (KM12; Homo sapiens) of 2.21 µM. The CC50 (KM12; [2]) was 8.64 µM, the TGI (KM12) was 4.37 µM and the GI50 (SF-268; Homo sapiens) was 2.78 µM. It also gave a CC50 (SF-268; [2]) of 44.3 µM, a TGI (SF-268) of 8.97 µM and a GI50 (SF-539; Homo sapiens) of 4.48 µM. The CC50 (SF-539; [2]) was 57.1 µM, the TGI (SF-539) was 17.6 µM and the GI50 (SNB-75; Homo sapiens) was 6.67 µM. For the same compound, the CC50 (SNB-75; [2]) was 54 µM, the TGI (SNB-75) was 21.4 µM and the TGI (LOX IMVI) was 3.42 µM. It also gave a GI50 (LOX IMVI; Homo sapiens) of 1.76 µM, a CC50 (LOX IMVI; [2]) of 6.68 µM and a GI50 (M14; Homo sapiens) of 2.82 µM. For the same compound, the CC50 (M14; [2]) was 33.4 µM, the TGI (M14) was 8.46 µM and the GI50 (SK-MEL-2; Homo sapiens) was 13.1 µM. For the same compound, the TGI (SK-MEL-2) was 33.6 µM, the GI50 (SK-MEL-28; Homo sapiens) was 11.2 µM and the TGI (SK-MEL-28) was 24.0 µM. The GI50 (UACC-257; Homo sapiens) was 3.49 µM, the CC50 (UACC-257; [2]) was 39.8 µM and the TGI (UACC-257) was 14.4 µM. For the same compound, the GI50 (OVCAR-4; Homo sapiens) was 4.4 µM, the CC50 (OVCAR-4; [2]) was 43.5 µM and the TGI (OVCAR-4) was 16.1 µM. It also gave a GI50 (OVCAR-5; Homo sapiens) of 5.86 µM, a CC50 (OVCAR-5; [2]) of 53.3 µM and a TGI (OVCAR-5) of 20.0 µM. It also gave a GI50 (OVCAR-8; Homo sapiens) of 2.95 µM, a CC50 (OVCAR-8; [2]) of 42.9 µM and a TGI (OVCAR-8) of 9.51 µM. For the same compound, the TGI (A498) was 25.0 µM, the GI50 (A498; Homo sapiens) was 11.7 µM and the CC50 (A498; [2]) was 53.1 µM. For the same compound, the GI50 (RXF-393; Homo sapiens) was 2.15 µM, the CC50 (RXF-393; [2]) was 18.7 µM and the TGI (RXF-393) was 5.39 µM. The TGI (SN12C) was 7.98 µM, the GI50 (SN12C; Homo sapiens) was 2.85 µM and the CC50 (SN12C; [2]) was 30.8 µM. It also gave a GI50 (UO-31; Homo sapiens) of 2.51 µM, a CC50 (UO-31; [2]) of 33.5 µM and a TGI (UO-31) of 7.50 µM. It also gave a GI50 (PC-3; Homo sapiens) of 1.8 µM, a CC50 (PC-3; [2]) of 8.44 µM and a TGI (PC-3) of 3.89 µM. The GI50 (MCF7; Homo sapiens) was 4.02 µM, the CC50 (MCF7; [2]) was 60.5 µM and the TGI (MCF7) was 18.0 µM. For the same compound, the GI50 ([1]; Homo sapiens) was 1.72 µM, the CC50 [1, 2] was 17.2 µM and the TGI [1] was 4.54 µM. The TGI (T-47D) was 20.3 µM, the GI50 (T-47D; Homo sapiens, T47D) was 5.03 µM and the CC50 (T-47D; Homo sapiens, T47D, read-out: LC50 (the source's name)) was 57.9 µM.
